From US11104968B2, “Site-specific conjugation of linker drugs to antibodies and resulting ADCS” (Byondis B.V., priority 2014, dated 2021)
Starred links: 1 amine or outer side, 2 acyl side, 3 side chain; linkers in the order of their positions; H or OH if unused. Non-standard residues stand in square brackets, D forms with d. Residues, ends and D or L forms follow the SMILES beside them. *: point of attachment. Dolaproine = CO[C@@H]([C@@H]1CCCN1)[C@@H](C)C(=O)O; Hexanoyl(6-maleimido) = O=C1C=CC(=O)N1CCCCCC(=O)*; Dil = CC[C@H](C)[C@H](NC)[C@@H](CC(=O)O)OC; PABC = O=C(OCc1ccc(N[*:1])cc1)[*:2]; X1 = C[C@@H](N*)[C@@H](O)c1ccccc1; Cit = NC(=O)NCCC[C@H](N)C(=O)O; NMeV = CN[C@H](C(=O)O)C(C)C

What was measured:
[1] = tested on: PSMA-positive cell line LNCaP-C4.2; assay: In vitro cytotoxicity, PSMA-positive cell line; format: cell-based, human; conditions: for % efficacy: at the highest concentration tested (~100 nM)
[2] = tested on: 5T4-positive cell line MDA-MB-468; assay: In vitro cytotoxicity, 5T4-positive cell line; format: cell-based, human; conditions: anti-5T4-vc-seco-DUBA ADCs
Description: The potencies of the engineered anti-5T4 ADCs were equal to the conventionally linked ADC H8-wt on 5T4-expressing MDA-MB-468 cells (IC50 between 0.07 and 0.09 nM, Table 6).

| SMILES | IC50 ([1]; anti-PSMA-vc-MMAE ADCs) [nM] | % efficacy ([1]; anti-PSMA-vc-MMAE ADCs) [%] | IC50 [2] [nM] | % efficacy ([2]; at the highest concentration tested (~100 nM)) [%] | % efficacy ([1]; anti-PSMA-vc-seco-DUBA ADCs) [%] | IC50 ([1]; anti-PSMA-vc-seco-DUBA ADCs, based on drug equivalents) [nM] |
| --- | --- | --- | --- | --- | --- | --- |
| CC[C@H](C)[C@@H]([C@@H](CC(=O)N1CCC[C@H]1[C@H](OC)[C@@H](C)C(=O)N[C@H](C)[C@@H](O)c1ccccc1)OC)N(C)C(=O)[C@@H](NC(=O)[C@H](C(C)C)N(C)C(=O)OCc1ccc(NC(=O)[C@H](CCCNC(N)=O)NC(=O)[C@@H](NC(=O)CCCCCN2C(=O)C=CC2=O)C(C)C)cc1)C(C)C [Free linker drug (vc-MMAE), vc-MMAE] ({Hexanoyl(6-maleimido)}-V[Cit][PABC][NMeV]V[Dil][Dolaproine]-X1) | 0.23 | 94 |  |  |  |  |
| Cc1cccc2c(OC(=O)N(CCOCCO)CCN(C)C(=O)OCc3ccc(NC(=O)[C@H](CCCNC(N)=O)NC(=O)[C@@H](NC(=O)OCCOCCN4C(=O)C=CC4=O)C(C)C)cc3)cc3c(c12)[C@H](CCl)CN3C(=O)c1cn2cc(NC(=O)c3ccc(O)cc3)ccc2n1 [Free linker drug, vc-seco-DUBA] |  |  | 0.02 | 94 | 98 | 0.02 |
